This is an account of results in ChEMBL document CHEMBL4311960, “Two optimized antimicrobial peptides with therapeutic potential for clinical antibiotic-resistant Staphylococcus aureus” (Eur J Med Chem, 2019).

The test system of data set [1] is Streptococcus mutans. Description: Antibacterial activity against Streptococcus mutans UA159 assessed as reduction in bacterial growth incubated for 24 hrs by serial dilution method. In kind it is functional. Conditions: UA159, 24 h, read-out: MIC.
Data set [2] relates to Staphylococcus aureus. Description: Inhibition of biofilm formation in Staphylococcus aureus ATCC 25923 at MIC incubated for 24 hrs by scanning electron microscopy. In kind it is functional, organism-based.
For data set [3], the system named is Staphylococcus aureus. The experiment in a line: Inhibition of biofilm formation in methicillin-resistant Staphylococcus aureus ATCC 18466 at MIC incubated for 24 hrs by scanning electron microscopy. Type of data set: functional, organism-based.
Data set [4] deals with Staphylococcus aureus. The experiment in a line: Disruption of membrane integrity in Staphylococcus aureus ATCC 29213 assessed as invagination of cell membrane at MIC incubated for 24 hrs by scanning electron microscopy. Type of data set: functional, organism-based.
Data set [5] relates to Staphylococcus aureus. The experiment in a line: Disruption of membrane integrity in Staphylococcus aureus ATCC 25923 assessed as decrease in cell volume at MIC incubated for 24 hrs by scanning electron microscopy. In kind it is functional, organism-based.
The subject of data set [6] is Staphylococcus aureus. The experiment in a line: Disruption of membrane integrity in Staphylococcus aureus ATCC 25923 assessed as perforation of cell membrane at MIC incubated for 24 hrs by scanning electron microscopy. In kind it is functional, organism-based.
For data set [7], the system named is Staphylococcus aureus. The experiment in a line: Disruption of membrane integrity in methicillin-resistant Staphylococcus aureus ATCC 19498 assessed as cell membrane damage at MIC incubated for 24 hrs by scanning electron microscopy. In kind it is functional, organism-based.
The test system of data set [8] is Staphylococcus aureus. The experiment in a line: Disruption of membrane integrity in methicillin-resistant Staphylococcus aureus ATCC 19498 assessed as extravasation of cytoplasmic content at MIC incubated for 24 hrs by scanning electron microscopy. Type of data set: functional, organism-based.
Data set [9] has as its system Staphylococcus aureus. Description: Disruption of membrane integrity in methicillin-resistant Staphylococcus aureus ATCC 18466 assessed as cell membrane damage at MIC incubated for 24 hrs by scanning electron microscopy. In kind it is functional, organism-based.
Data set [10] has as its system Staphylococcus aureus. The experiment in a line: Inhibition of biofilm formation in Staphylococcus aureus ATCC 29213 assessed as downregulation of spa gene at MIC incubated for 1 hr by qRT-PCR. Type of data set: functional, organism-based.
Data set [11] concerns Staphylococcus aureus. The experiment in a line: Inhibition of biofilm formation in methicillin-resistant Staphylococcus aureus ATCC 19498 assessed as downregulation of spa gene at MIC incubated for 1 hr by qRT-PCR. Type of data set: functional, organism-based. A general note: Real-time PCR tracks product formation cycle by cycle.
Data set [12] deals with Staphylococcus aureus. The experiment in a line: Inhibition of biofilm formation in methicillin-resistant Staphylococcus aureus ATCC 18466 assessed as downregulation of spa gene at MIC incubated for 1 hr by qRT-PCR. Type of data set: functional, organism-based.
Data set [13] relates to Staphylococcus aureus. Description: Inhibition of biofilm formation in Staphylococcus aureus ATCC 29213 assessed as downregulation of […] gene at MIC incubated for 1 hr by qRT-PCR. Type of data set: functional, organism-based.
The subject of data set [14] is Staphylococcus aureus. The experiment in a line: Inhibition of biofilm formation in Staphylococcus aureus ATCC 29213 assessed as downregulation of mecA gene at MIC incubated for 1 hr by qRT-PCR. In kind it is functional, organism-based.
Data set [15] has as its system Staphylococcus aureus. Description: Inhibition of biofilm formation in Staphylococcus aureus ATCC 25923 assessed as downregulation of mecA gene at MIC incubated for 1 hr by qRT-PCR. In kind it is functional, organism-based.
For data set [16], the system named is Staphylococcus aureus. Description: Inhibition of biofilm formation in methicillin-resistant Staphylococcus aureus ATCC 19498 assessed as downregulation of mecA gene at MIC incubated for 1 hr by qRT-PCR. In kind it is functional, organism-based.
Data set [17] concerns Staphylococcus aureus. The experiment in a line: Inhibition of biofilm formation in methicillin-resistant Staphylococcus aureus ATCC 18466 assessed as downregulation of mecA gene at MIC incubated for 1 hr by qRT-PCR. Type of data set: functional, organism-based.
Data set [18] is described as follows: Hemolytic activity in mouse Erythrocyte assessed as HC50 incubated for 1 hr. Type of data set: ADME, cell-based. The settings on record: mouse erythrocytes.
The nature of data set [19]: Stability in MRSA supernatant at 20 uM incubated for 24 hrs by HPLC-MS analysis. Type of data set: physicochemical.

Active and inactive are the calls of the source. The calls are words filed in the database; no cut-off is given here.

On to H-YIRKIRRFFKKLKKILKK-NH2, for which the MIC in data set [1] came to 64 µg/mL. The inhibition entry in data set [2], in data set [3], in [10], in data set [11], in [12] and in [13] was “Active” each time. The result in [4], in data set [5], in data set [6], in data set [7], in data set [8] and in data set [9] was Active. In addition, the inhibition entry in data set [14], in data set [15], in data set [16] and in data set [17] was “inactive” each time. Moreover, the HC50 at 1 h in [18] was above 640 µg/mL. In data set [19], the Stability entry was “Stable”.

Consider H-SYERKINRHFKTLKKNLKKK-NH2, for which the MIC in data set [1] was below 64 µg/mL. Further, the inhibition entry in data set [2], in [3], in [10], in data set [11], in data set [12] and in [13] was “Active” throughout. Moreover, the outcome in data set [4], in [5], in data set [6], in [7], in [8] and in data set [9] was Active. In addition, the inhibition entry in data set [14], in [15], in data set [16] and in data set [17] was “inactive” throughout. In data set [18], the HC50 at 1 h is above 640 µg/mL. The Stability result in data set [19] is reported as “Stable”.

In general, MIC refers to the lowest concentration that inhibits growth of the organism. One may read the HC50 as the concentration that lyses half of the red blood cells.
